Source: patent US4401595A, “4-Allyl azetidinone intermediate for β-lactam antibacterial agents” (Beecham Group Limited, priority 1977, dated 1983)
≈ marks a conversion by molar mass, not a printed value. Read-outs that look alike come from different tables or passages of the source.

Tests used:
[1] = system: Klebsiella aerogenes A; experiment: MIC in agar; assay type: cell-based; conditions: read-out: MIC, concentration required to inhibit the growth
[2] = system: Shigella sonnei MB 11967; experiment: MIC in agar; assay type: cell-based; conditions: MB11967, read-out: MIC, concentration required to inhibit the growth
[3] = system: Staph. aureus Russell; experiment: MIC in agar; assay type: cell-based; conditions: Staphylococcus aureus, read-out: MIC, concentration required to inhibit the growth
[4] = system: Staph. aureus Oxford; experiment: MIC in agar; assay type: cell-based; conditions: Staphylococcus aureus, read-out: concentration required to inhibit the growth
[5] = system: Enterobacter cloacae N1; experiment: MIC in agar; assay type: cell-based; conditions: read-out: concentration required to inhibit the growth
[6] = system: Serratia marcescens US20; experiment: MIC in agar; assay type: cell-based
[7] = biological target: β-lactamase, Enterobacter P99 (Enterobacter cloacae, UniProt P05364); experiment: β-lactamase inhibition I50; assay type: biochemical
β-lactamase, Enterobacter P99, sequence (P05364 21-381): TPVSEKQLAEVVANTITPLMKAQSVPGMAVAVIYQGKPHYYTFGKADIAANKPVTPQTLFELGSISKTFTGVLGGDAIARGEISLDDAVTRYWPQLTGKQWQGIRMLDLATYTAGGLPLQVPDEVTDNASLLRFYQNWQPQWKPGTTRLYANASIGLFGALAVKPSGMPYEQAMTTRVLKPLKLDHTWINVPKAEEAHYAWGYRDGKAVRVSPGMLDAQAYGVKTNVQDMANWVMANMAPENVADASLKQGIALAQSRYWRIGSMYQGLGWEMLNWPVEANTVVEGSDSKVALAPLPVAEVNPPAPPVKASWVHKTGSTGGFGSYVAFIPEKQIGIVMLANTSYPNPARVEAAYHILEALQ

[8] = biological target: β-lactamase, Pseudomonas aeruginosa A (Pseudomonas aeruginosa, UniProt P24735); experiment: β-lactamase inhibition I50; assay type: biochemical
β-lactamase, Pseudomonas aeruginosa A, sequence (P24735 27-397): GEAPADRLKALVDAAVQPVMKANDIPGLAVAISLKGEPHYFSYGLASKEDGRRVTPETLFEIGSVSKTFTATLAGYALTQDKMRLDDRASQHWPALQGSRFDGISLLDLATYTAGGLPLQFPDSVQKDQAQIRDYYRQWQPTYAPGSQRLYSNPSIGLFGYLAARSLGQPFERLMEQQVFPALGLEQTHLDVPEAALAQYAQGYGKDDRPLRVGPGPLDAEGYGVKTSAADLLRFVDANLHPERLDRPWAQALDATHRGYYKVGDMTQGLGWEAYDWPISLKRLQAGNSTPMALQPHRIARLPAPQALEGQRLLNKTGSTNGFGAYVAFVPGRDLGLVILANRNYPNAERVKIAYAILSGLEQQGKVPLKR

[9] = biological target: β-lactamase, Escherichia coli JT4 (Escherichia coli, UniProt P62593); experiment: β-lactamase inhibition I50; assay type: biochemical
β-lactamase, Escherichia coli JT4, sequence (P62593 24-286 limits assumed): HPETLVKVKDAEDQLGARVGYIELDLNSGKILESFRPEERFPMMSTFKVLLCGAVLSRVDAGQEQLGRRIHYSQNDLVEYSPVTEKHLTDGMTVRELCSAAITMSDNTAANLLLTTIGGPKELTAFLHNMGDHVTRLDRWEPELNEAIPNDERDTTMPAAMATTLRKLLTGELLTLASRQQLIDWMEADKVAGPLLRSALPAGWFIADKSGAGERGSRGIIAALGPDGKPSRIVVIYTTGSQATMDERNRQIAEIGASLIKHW

[10] = biological target: β-lactamase, Staphylococcus aureus Russell (Staphylococcus aureus, UniProt P00807); experiment: β-lactamase inhibition I50; assay type: biochemical
β-lactamase, Staphylococcus aureus Russell, sequence (P00807 25-281): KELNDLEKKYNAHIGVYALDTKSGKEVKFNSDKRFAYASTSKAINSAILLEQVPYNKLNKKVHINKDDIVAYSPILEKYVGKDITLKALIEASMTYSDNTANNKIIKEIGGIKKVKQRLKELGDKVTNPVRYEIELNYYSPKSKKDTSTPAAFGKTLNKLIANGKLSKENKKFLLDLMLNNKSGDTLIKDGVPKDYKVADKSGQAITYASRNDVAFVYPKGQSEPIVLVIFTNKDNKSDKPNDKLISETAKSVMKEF

[11] = system: Bacillus subtilis A; experiment: MIC in agar; assay type: cell-based; conditions: read-out: MIC, concentration required to inhibit the growth
[12] = system: Staph. aureus 1517; experiment: MIC in agar; assay type: cell-based; conditions: Staphylococcus aureus, read-out: MIC, concentration required to inhibit the growth
[13] = system: Strep pyogenes CN10; experiment: MIC in agar; assay type: cell-based; conditions: read-out: concentration required to inhibit the growth
[14] = system: E. coli 0111; experiment: MIC in agar; assay type: cell-based; conditions: Escherichia coli, read-out: concentration required to inhibit the growth
[15] = system: Proteus mirabilis C977; experiment: MIC in agar; assay type: cell-based; conditions: read-out: concentration required to inhibit the growth
[16] = system: Salmonella typhimurium CT10; experiment: MIC in agar; assay type: cell-based; conditions: Salmonella enterica, read-out: concentration required to inhibit the growth
[17] = system: Citrobacter freundii E8; experiment: MIC in agar; assay type: cell-based; conditions: read-out: MIC, concentration required to inhibit the growth
[18] = system: Proteus morganii I 580; experiment: MIC in agar; assay type: cell-based; conditions: Morganella morganii, I580, read-out: concentration required to inhibit the growth
[19] = system: Proteus rettgeri WM16; experiment: MIC in agar; assay type: cell-based; conditions: Providencia rettgeri, read-out: concentration required to inhibit the growth
[20] = system: Proteus vulgaris WO 91; experiment: MIC in agar; assay type: cell-based; conditions: WO91, read-out: concentration required to inhibit the growth
[21] = system: Klebsiella aerogenes; experiment: MIC in agar; assay type: cell-based; conditions: Klebsiella aerogenes (strain not given), read-out: concentration required to inhibit the growth
[22] = system: Salmonella typhimurium; experiment: MIC in agar; assay type: cell-based; conditions: Salmonella enterica, Salmonella typhimurium (strain not given), read-out: concentration required to inhibit the growth
[23] = system: Strep pneumoniae; experiment: MIC in agar; assay type: cell-based; conditions: read-out: concentration required to inhibit the growth
[24] = system: Strep. pyogenes; experiment: MIC in agar; assay type: cell-based; conditions: Streptococcus pyogenes, Strep. pyogenes (strain not given), read-out: concentration required to inhibit the growth
[25] = biological target: β-lactamase, Proteus mirabilis C889; experiment: β-lactamase inhibition I50; assay type: biochemical
[26] = biological target: β-lactamase, Klebsiella aerogenes E70; experiment: β-lactamase inhibition I50; assay type: biochemical
[27] = biological target: β-lactamase, Pseudomonas dalgleish (Pseudomonas aeruginosa, UniProt P16897); experiment: β-lactamase inhibition I50; assay type: biochemical
β-lactamase, Pseudomonas dalgleish, sequence (P16897 18-288): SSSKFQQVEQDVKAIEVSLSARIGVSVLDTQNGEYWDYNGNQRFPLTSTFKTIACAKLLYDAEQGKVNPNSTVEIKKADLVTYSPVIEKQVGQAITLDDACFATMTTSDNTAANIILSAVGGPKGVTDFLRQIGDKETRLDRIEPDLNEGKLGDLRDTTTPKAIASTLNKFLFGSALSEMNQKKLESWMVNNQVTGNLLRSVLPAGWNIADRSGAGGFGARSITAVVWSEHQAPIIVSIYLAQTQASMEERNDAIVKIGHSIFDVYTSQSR

[28] = system: Strep faecalis I; experiment: MIC in agar; assay type: cell-based; conditions: read-out: concentration required to inhibit the growth
[29] = system: Pseudomonas aeruginosa A; experiment: MIC in agar; assay type: cell-based; conditions: read-out: concentration required to inhibit the growth
[30] = Serratia marcescens US20, read-out: concentration required to inhibit the growth

CC(C)(O)[C@H]1C(=O)N2C(C(=O)OCc3ccccc3)=CC[C@@H]12 (relative stereo) [Example 4 cis-isomer, Benzyl 6-(2-hydroxy-2-propyl)-7-oxo-1-azabicyclo[3,2,0]hept-2-ene-2-carboxylate]
MIC [1]: ≤ 2 µg/mL
MIC [2]: ≤ 2 µg/mL
MIC [3]: ≤ 2 µg/mL
MIC [4]: ≤ 2 µg/mL
MIC [5]: 20 µg/mL (≈ 66.4 µM)
MIC [6, 30]: 20 µg/mL (≈ 66.4 µM)

O=C(OCc1ccccc1)C1=CC[C@H]2[C@@H](C3(O)CCCCC3)C(=O)N12 (relative stereo) [compound 34, Benzyl 6-(1-hydroxycyclohex-1-yl)-7-oxo-1-azabicyclo[3,2,0]hept-2-ene-2-carboxylate]
IC50 [7]: 14.6 µM
IC50 [8]: 4.1 µM
IC50 [9]: 46.9 µM
IC50 [10]: 13.5 µM

COC(=O)/C=C/C[C@H]1C(=O)N2C(C(=O)OC3OC(=O)c4ccccc43)=CC[C@@H]12 (relative stereo) [compound 41, Phthalidyl 6-(3-methoxycarbonyl-2-propen-1-yl)-7-oxo-1-azabicyclo[3,2,0]hept-2-ene-2-carboxylate]
MIC [11]: 25 µg/mL (≈ 65.2 µM)
MIC [1]: 50 µg/mL (≈ 130 µM)
MIC [2]: 50 µg/mL (≈ 130 µM)
MIC [3]: ≤ 0.8 µg/mL
MIC [12]: ≤ 0.8 µg/mL
MIC [4]: ≤ 0.8 µg/mL
MIC [13]: ≤ 0.8 µg/mL
MIC [14]: 50 µg/mL (≈ 130 µM)
MIC [15]: 100 µg/mL (≈ 261 µM)
MIC [16]: 50 µg/mL (≈ 130 µM)

N#C/C=C/C[C@H]1C(=O)N2C(C(=O)OCc3ccccc3)=CC[C@@H]12 (relative stereo) [compound 56, Benzyl 6-(3-cyano-2-propen-1-yl)-7-oxo-1-azabicyclo[3,2,0]hept-2-ene-2-carboxylat]
MIC [11]: 20 µg/mL (≈ 64.9 µM)
MIC [17]: 20 µg/mL (≈ 64.9 µM)
MIC [1]: 20 µg/mL (≈ 64.9 µM)
MIC [2]: 20 µg/mL (≈ 64.9 µM)
MIC [3]: ≤ 2 µg/mL
MIC [12]: ≤ 2 µg/mL
MIC [4]: ≤ 2 µg/mL
MIC [5]: 20 µg/mL (≈ 64.9 µM)
MIC [6, 30]: 20 µg/mL (≈ 64.9 µM)
MIC [14]: 20 µg/mL (≈ 64.9 µM)
MIC [15]: 20 µg/mL (≈ 64.9 µM)
MIC [16]: 20 µg/mL (≈ 64.9 µM)
MIC [18]: 20 µg/mL (≈ 64.9 µM)
MIC [19]: 20 µg/mL (≈ 64.9 µM)

N#C/C=C/C[C@H]1C(=O)N2C(C(=O)OC3OC(=O)c4ccccc43)=CC[C@@H]12 (relative stereo) [compound 61, Phthalidyl 6-(3-cyano-2-propen-1-yl)-7-oxo-1-azabicyclo[3,2,0]hept-2-ene-2-carboxylat]
MIC [17]: 7.3 µg/mL (≈ 20.8 µM)
MIC [2]: 22 µg/mL (≈ 62.8 µM)
MIC [3]: 2.4 µg/mL (≈ 6.85 µM)
MIC [4]: 2.4 µg/mL (≈ 6.85 µM)
MIC [5]: 22 µg/mL (≈ 62.8 µM)
MIC [6, 30]: 22 µg/mL (≈ 62.8 µM)
MIC [14]: 7.3 µg/mL (≈ 20.8 µM)
MIC [15]: 66.6 µg/mL (≈ 190 µM)
MIC [18]: 22 µg/mL (≈ 62.8 µM)
MIC [19]: 22 µg/mL (≈ 62.8 µM)
MIC [20]: 66.6 µg/mL (≈ 190 µM)
MIC [21]: 7.3 µg/mL (≈ 20.8 µM)
MIC [22]: 7 µg/mL (≈ 20 µM)

COC(=O)/C=C/CC1C(=O)N2C(C(=O)OCc3ccc([N+](=O)[O-])cc3)=CCC12 (stereo not shown) [53a, p-Nitrobenzyl 6-(3-methoxycarbonyl-2-propen-1-yl)-7-oxo-1-azabicyclo[3,2,0]hept-2-ene-2-carboxylate]
MIC [3]: 2.46 µg/mL (≈ 6.37 µM)
MIC [23]: 7.4 µg/mL (≈ 19.2 µM)
MIC [24]: 0.8 µg/mL (≈ 2.07 µM)

O=CCC1C(=O)N2C(C(=O)OCc3ccccc3)=CCC12 (stereo not shown) [compound 4, Benzyl 6-(2-oxoethyl)-7-oxo-1-azabicyclo[3,2,0]hept-2-ene-2-carboxylate]
IC50 [7]: 5.61 µM
IC50 [8]: > 140 µM
β-lactamase inhibition I50 [25]: 2.1 µg/mL
β-lactamase inhibition I50 [26]: > 40 µg/mL
IC50 [9]: < 4.21 µM
IC50 [27]: 3.51 µM
IC50 [10]: > 35.1 µM

COC(=O)/C=C/CC1C(=O)N2C(C(=O)OCc3ccccc3)=CCC12 (stereo not shown) [compound 5, Benzyl 6-(3-methoxycarbonyl-2-propen-1-yl)-7-oxo-1-azabicyclo[3,2,0]hept-2-ene-2-carboxylate]
MIC [11]: 20 µg/mL (≈ 58.6 µM)
MIC [17]: 20 µg/mL (≈ 58.6 µM)
MIC [1]: 20 µg/mL (≈ 58.6 µM)
MIC [2]: 20 µg/mL (≈ 58.6 µM)
MIC [3]: 2 µg/mL (≈ 5.86 µM)
MIC [12]: 2 µg/mL (≈ 5.86 µM)

COC(=O)/C=C/CC1C(=O)N2C(C(=O)OCC(Cl)(Cl)Cl)=CCC12 (stereo not shown) [compound 8, 2,2,2-Trichloroethyl-6-(3-methoxycarbonyl-2-propen-1-yl)-7-oxo-1-azabicyclo[3,2,0]hept-2-ene-2-carboxylate]
MIC [11]: 20 µg/mL (≈ 52.3 µM)
MIC [17]: 20 µg/mL (≈ 52.3 µM)
MIC [1]: 20 µg/mL (≈ 52.3 µM)
MIC [2]: 20 µg/mL (≈ 52.3 µM)
MIC [3]: ≤ 2 µg/mL
MIC [12]: ≤ 2 µg/mL
MIC [4]: ≤ 2 µg/mL
MIC [28]: 20 µg/mL (≈ 52.3 µM)
MIC [23]: 20 µg/mL (≈ 52.3 µM)
MIC [13]: 20 µg/mL (≈ 52.3 µM)

O=C(OCc1ccccc1)C1=CC[C@@H]2[C@H](C(O)c3ccccc3)C(=O)N12 (stereo partly shown) [compound 30, Benzyl 6-(1-hydroxy-1-phenylmethyl)-7-oxo-1-azabicyclo[3,2,0]hept-2-ene-2-carboxylate]
β-lactamase inhibition I50 [25]: 0.27 µg/mL
IC50 [10]: 0.149 µM

COC(=O)/C=C/CC1C(=O)N2C(C(=O)OCOC(=O)C(C)(C)C)=CCC12 (stereo not shown) [compound 52, Pivaloyloxymethyl 6-(3-methoxycarbonyl-2-propen-1-yl)-7-oxo-1-azabicyclo[3,2,0]hept-2-ene-2-carboxylate]
MIC [11]: 20 µg/mL (≈ 54.7 µM)
MIC [1]: 20 µg/mL (≈ 54.7 µM)
MIC [2]: 20 µg/mL (≈ 54.7 µM)
MIC [3]: 2 µg/mL (≈ 5.47 µM)
MIC [12]: 2 µg/mL (≈ 5.47 µM)
MIC [4]: 2 µg/mL (≈ 5.47 µM)
MIC [14]: 20 µg/mL (≈ 54.7 µM)
MIC [16]: 20 µg/mL (≈ 54.7 µM)

O=C(OC1OC(=O)c2ccccc21)C1=CCC2CC(=O)N12 (stereo not shown) [compound 81, Phthalidyl 7-oxo-1-azabicyclo[3,2,0]hept-2-ene-2-carboxylate]
MIC [11]: 20 µg/mL (≈ 70.1 µM)
MIC [17]: 20 µg/mL (≈ 70.1 µM)
MIC [1]: 20 µg/mL (≈ 70.1 µM)
MIC [3]: 20 µg/mL (≈ 70.1 µM)
MIC [4]: 20 µg/mL (≈ 70.1 µM)
MIC [5]: 20 µg/mL (≈ 70.1 µM)
MIC ([6]; US20, Serratia marcescens VS20, read-out: concentration required to inhibit the growth): 20 µg/mL (≈ 70.1 µM)
MIC [14]: 20 µg/mL (≈ 70.1 µM)
MIC [15]: 20 µg/mL (≈ 70.1 µM)
MIC [16]: 20 µg/mL (≈ 70.1 µM)
MIC [29]: 160 µg/mL (≈ 561 µM)
